Experimental data as given in patent US20230085307A1, “PYRIDAZINONE COMPOUND AND HERBICIDE” (NISSAN CHEMICAL CORPORATION, priority 2019, published 2023).

Legend:
late watergrass = assay: Test Example 1: herbicidal activity, application before weed generation under submerged conditions (Table 16, symbol A); format: in vivo, late watergrass (Echinochloa oryzicola); conditions: amount of applied herbicide 320 g/ha
Summary of the method: (§1)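 Emulsion formulation, water-diluted to set dose, was put onto the flooded surface (4 cm depth, alluvial soil) the same day weeds were sown and 2.5-leaf rice transplanted. After 3 weeks at 25-30 °C under glass, each species was rated 0 (≤5% kill) to 5 (≥90% kill).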

Japanese bulrush = assay: Test Example 1: herbicidal activity, application before weed generation under submerged conditions (Table 16, symbol B); format: in vivo, Japanese bulrush (Schoenoplectus juncoides); conditions: amount of applied herbicide 320 g/ha
Summary of the method: as §1

oval-leafed pondweed = assay: Test Example 1: herbicidal activity, application before weed generation under submerged conditions (Table 16, symbol C); format: in vivo, oval-leafed pondweed (Monochoria vaginalis); conditions: amount of applied herbicide 320 g/ha
Summary of the method: as §1

barnyard grass [1] = assay: Test Example 3: herbicidal effect by foliage application, Wagner pot (Table 18, symbol H); format: in vivo, barnyard grass (Echinochloa crus-galli)
Summary of the method: (§2)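 Plants were sown in alluvial soil held under 0.1–0.5 cm standing water and grown 14 days in a greenhouse at 25–30 °C. An emulsifiable formulation, water-diluted to the set dose, was then sprayed onto the foliage, and effects were scored three weeks later using previously defined criteria.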

Chinese sprangletop = assay: Test Example 3: herbicidal effect by foliage application, Wagner pot (Table 18, symbol D); format: in vivo, chinese sprangletop (Leptochloa chinensis)
Summary of the method: as §2

rice flat sedge = assay: Test Example 3: herbicidal effect by foliage application, Wagner pot (Table 18, symbol E); format: in vivo, rice flat sedge (Cyperus iria)
Summary of the method: as §2

southern crabgrass [2] = assay: Test Example 4: herbicidal effect by soil treatment (Table 19, symbol F); format: in vivo, southern crabgrass (Digitaria ciliaris); conditions: amount of applied herbicide 320 g/ha
Summary of the method: (§3)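 Emulsion of test compound, water-diluted to predetermined amount, sprayed on soil after sowing (seed depth ~1.5 cm, sterilized diluvial soil). Greenhouse, 25–30° C. Effect graded at three weeks post-spray.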

green foxtail [3] = assay: Test Example 4: herbicidal effect by soil treatment (Table 19, symbol G); format: in vivo, green foxtail (Setaria viridis); conditions: amount of applied herbicide 320 g/ha
Summary of the method: as §3

barnyard grass [4] = assay: Test Example 4: herbicidal effect by soil treatment (Table 19, symbol H); format: in vivo, barnyard grass (Echinochloa crus-galli); conditions: amount of applied herbicide 320 g/ha
Summary of the method: as §3

wild oat [5] = assay: Test Example 4: herbicidal effect by soil treatment (Table 19, symbol I); format: in vivo, wild oat (Avena fatua); conditions: amount of applied herbicide 320 g/ha
Summary of the method: as §3

Italian ryegrass [6] = assay: Test Example 4: herbicidal effect by soil treatment (Table 19, symbol K); format: in vivo, Italian ryegrass (Lolium multiflorum); conditions: amount of applied herbicide 320 g/ha
Summary of the method: as §3

windgrass [7] = assay: Test Example 4: herbicidal effect by soil treatment (Table 19, symbol L); format: in vivo, windgrass (Apera spica-venti); conditions: amount of applied herbicide 320 g/ha
Summary of the method: as §3

velvetleaf [8] = assay: Test Example 4: herbicidal effect by soil treatment (Table 19, symbol M); format: in vivo, velvetleaf (Abutilon theophrasti); conditions: amount of applied herbicide 320 g/ha
Summary of the method: as §3

redroot pigweed [9] = assay: Test Example 4: herbicidal effect by soil treatment (Table 19, symbol N); format: in vivo, redroot pigweed (Amaranthus retroflexus); conditions: amount of applied herbicide 320 g/ha
Summary of the method: as §3

lambsquarters [10] = assay: Test Example 4: herbicidal effect by soil treatment (Table 19, symbol O); format: in vivo, lambsquarters (Chenopodium album); conditions: amount of applied herbicide 320 g/ha
Summary of the method: as §3

chickweed [11] = assay: Test Example 4: herbicidal effect by soil treatment (Table 19, symbol P); format: in vivo, common chickweed (Stellaria media); conditions: amount of applied herbicide 320 g/ha
Summary of the method: as §3

persian speedwell [12] = assay: Test Example 4: herbicidal effect by soil treatment (Table 19, symbol R); format: in vivo, Persian speedwell (Veronica persica); conditions: amount of applied herbicide 320 g/ha
Summary of the method: as §3

southern crabgrass [13] = assay: Test Example 5: herbicidal effect by foliage application, plastic box (Table 20, symbol F); format: in vivo, southern crabgrass (Digitaria ciliaris)
Summary of the method: (§4)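 Post-emergence foliar test in sterilized diluvial soil. Compound applied as water-diluted emulsion at a predetermined rate to 14-day-old plants; evaluation at three weeks.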

green foxtail [14] = assay: Test Example 5: herbicidal effect by foliage application, plastic box (Table 20, symbol G); format: in vivo, green foxtail (Setaria viridis)
Summary of the method: as §4

barnyard grass [15] = assay: Test Example 5: herbicidal effect by foliage application, plastic box (Table 20, symbol H); format: in vivo, barnyard grass (Echinochloa crus-galli)
Summary of the method: as §4

wild oat [16] = assay: Test Example 5: herbicidal effect by foliage application, plastic box (Table 20, symbol I); format: in vivo, wild oat (Avena fatua)
Summary of the method: as §4

blackgrass = assay: Test Example 5: herbicidal effect by foliage application, plastic box (Table 20, symbol J); format: in vivo, blackgrass (Alopecurus myosuroides)
Summary of the method: as §4

Italian ryegrass [17] = assay: Test Example 5: herbicidal effect by foliage application, plastic box (Table 20, symbol K); format: in vivo, Italian ryegrass (Lolium multiflorum)
Summary of the method: as §4

windgrass [18] = assay: Test Example 5: herbicidal effect by foliage application, plastic box (Table 20, symbol L); format: in vivo, windgrass (Apera spica-venti)
Summary of the method: as §4

velvetleaf [19] = assay: Test Example 5: herbicidal effect by foliage application, plastic box (Table 20, symbol M); format: in vivo, velvetleaf (Abutilon theophrasti)
Summary of the method: as §4

redroot pigweed [20] = assay: Test Example 5: herbicidal effect by foliage application, plastic box (Table 20, symbol N); format: in vivo, redroot pigweed (Amaranthus retroflexus)
Summary of the method: as §4

lambsquarters [21] = assay: Test Example 5: herbicidal effect by foliage application, plastic box (Table 20, symbol O); format: in vivo, lambsquarters (Chenopodium album)
Summary of the method: as §4

chickweed [22] = assay: Test Example 5: herbicidal effect by foliage application, plastic box (Table 20, symbol P); format: in vivo, common chickweed (Stellaria media)
Summary of the method: as §4

persian speedwell [23] = assay: Test Example 5: herbicidal effect by foliage application, plastic box (Table 20, symbol R); format: in vivo, Persian speedwell (Veronica persica)
Summary of the method: as §4

[24] = amount of applied herbicide 320 g/ha
[25] = foliage application, 320 g/ha, three weeks after application
[26] = amount of applied herbicide 320 g/ha, foliage application after 14-day growth, evaluated three weeks after application

Cc1nn(C)c(=O)c(-c2c(-c3ccc(N(C)C)cc3)sc3ccc(F)cc23)c1O [2-425]
Herbicidal effect, A: late watergrass (late watergrass): 3 (Herbicidal rate of 40% or more and less than 70%)
Herbicidal effect, B: Japanese bulrush (Japanese bulrush): 3 (Herbicidal rate of 40% or more and less than 70%)
Herbicidal effect, C: oval-leafed pondweed (oval-leafed pondweed): 0 (Herbicidal rate of 5% or less (almost no effect))
herbicidal effect on H: barnyard grass (barnyard grass [1]; [24]): 4 (Herbicidal rate of 70% or more and less than 90%)
herbicidal effect on D: Chinese sprangletop (Chinese sprangletop; [24]): 2 (Herbicidal rate of 20% or more and less than 40%)
herbicidal effect on E: rice flat sedge (rice flat sedge; [24]): 5 (Herbicidal rate of 90% or more (almost completely withered))
herbicidal effect, F: southern crabgrass (southern crabgrass [2]): 0 (Herbicidal rate of 5% or less (almost no effect))
herbicidal effect, G: green foxtail (green foxtail [3]): 0 (Herbicidal rate of 5% or less (almost no effect))
herbicidal effect, H: barnyard grass (barnyard grass [4]): 0 (Herbicidal rate of 5% or less (almost no effect))
herbicidal effect, I: wild oat (wild oat [5]): 0 (Herbicidal rate of 5% or less (almost no effect))
herbicidal effect, K: Italian ryegrass (Italian ryegrass [6]): 2 (Herbicidal rate of 20% or more and less than 40%)
herbicidal effect, L: windgrass (windgrass [7]): 0 (Herbicidal rate of 5% or less (almost no effect))
herbicidal effect, M: velvetleaf (velvetleaf [8]): 0 (Herbicidal rate of 5% or less (almost no effect))
herbicidal effect, N: redroot pigweed (redroot pigweed [9]): 5 (Herbicidal rate of 90% or more (almost completely withered))
herbicidal effect, O: lambsquarters (lambsquarters [10]): 4 (Herbicidal rate of 70% or more and less than 90%)
herbicidal effect, P: chickweed (chickweed [11]): 3 (Herbicidal rate of 40% or more and less than 70%)
herbicidal effect, R: persian speedwell (persian speedwell [12]): 5 (Herbicidal rate of 90% or more (almost completely withered))
F: southern crabgrass, herbicidal effect grade (southern crabgrass [13]; [25]): 5 (Herbicidal rate of 90% or more (almost completely withered))
G: green foxtail, herbicidal effect grade (green foxtail [14]; [25]): 5 (Herbicidal rate of 90% or more (almost completely withered))
H: barnyard grass, herbicidal effect grade (barnyard grass [15]; [25]): 4 (Herbicidal rate of 70% or more and less than 90%)
I: wild oat, herbicidal effect grade (wild oat [16]; [25]): 4 (Herbicidal rate of 70% or more and less than 90%)
J: blackgrass, herbicidal effect grade (blackgrass; [25]): 4 (Herbicidal rate of 70% or more and less than 90%)
K: Italian ryegrass, herbicidal effect grade (Italian ryegrass [17]; [25]): 4 (Herbicidal rate of 70% or more and less than 90%)
L: windgrass, herbicidal effect grade (windgrass [18]; [25]): 5 (Herbicidal rate of 90% or more (almost completely withered))
M: velvetleaf, herbicidal effect grade (velvetleaf [19]; [25]): 5 (Herbicidal rate of 90% or more (almost completely withered))
N: redroot pigweed, herbicidal effect grade (redroot pigweed [20]; [25]): 5 (Herbicidal rate of 90% or more (almost completely withered))
O: lambsquarters, herbicidal effect grade (lambsquarters [21]; [25]): 5 (Herbicidal rate of 90% or more (almost completely withered))
P: chickweed, herbicidal effect grade (chickweed [22]; [25]): 5 (Herbicidal rate of 90% or more (almost completely withered))
R: persian speedwell, herbicidal effect grade (persian speedwell [23]; [25]): 5 (Herbicidal rate of 90% or more (almost completely withered))

COCOc1ccccc1-c1sc2c(Cl)cccc2c1-c1c(O)c(C)nn(C)c1=O [4-083]
Herbicidal effect, A: late watergrass (late watergrass): 3 (Herbicidal rate of 40% or more and less than 70%)
Herbicidal effect, B: Japanese bulrush (Japanese bulrush): 0 (Herbicidal rate of 5% or less (almost no effect))
Herbicidal effect, C: oval-leafed pondweed (oval-leafed pondweed): 0 (Herbicidal rate of 5% or less (almost no effect))
herbicidal effect on barnyard grass (H) (barnyard grass [1]; 320 g/ha): 5 (Herbicidal rate of 90% or more (almost completely withered))
herbicidal effect on Chinese sprangletop (D) (Chinese sprangletop; 320 g/ha): 4 (Herbicidal rate of 70% or more and less than 90%)
herbicidal effect on rice flat sedge (E) (rice flat sedge; 320 g/ha): 5 (Herbicidal rate of 90% or more (almost completely withered))
Herbicidal effect by soil treatment, F: southern crabgrass (southern crabgrass [2]): 0 (Herbicidal rate of 5% or less (almost no effect))
Herbicidal effect by soil treatment, G: green foxtail (green foxtail [3]): 0 (Herbicidal rate of 5% or less (almost no effect))
Herbicidal effect by soil treatment, H: barnyard grass (barnyard grass [4]): 1 (Herbicidal rate of 5% or more and less than 20%)
Herbicidal effect by soil treatment, I: wild oat (wild oat [5]): 0 (Herbicidal rate of 5% or less (almost no effect))
Herbicidal effect by soil treatment, K: Italian ryegrass (Italian ryegrass [6]): 0 (Herbicidal rate of 5% or less (almost no effect))
Herbicidal effect by soil treatment, L: windgrass (windgrass [7]): 0 (Herbicidal rate of 5% or less (almost no effect))
Herbicidal effect by soil treatment, M: velvetleaf (velvetleaf [8]): 1 (Herbicidal rate of 5% or more and less than 20%)
Herbicidal effect by soil treatment, N: redroot pigweed (redroot pigweed [9]): 3 (Herbicidal rate of 40% or more and less than 70%)
Herbicidal effect by soil treatment, O: lambsquarters (lambsquarters [10]): 0 (Herbicidal rate of 5% or less (almost no effect))
Herbicidal effect by soil treatment, P: chickweed (chickweed [11]): 3 (Herbicidal rate of 40% or more and less than 70%)
Herbicidal effect by soil treatment, R: persian speedwell (persian speedwell [12]): 3 (Herbicidal rate of 40% or more and less than 70%)
Herbicidal effect by foliage application, F: southern crabgrass (southern crabgrass [13]; [26]): 3 (Herbicidal rate of 40% or more and less than 70%)
Herbicidal effect by foliage application, G: green foxtail (green foxtail [14]; [26]): 3 (Herbicidal rate of 40% or more and less than 70%)
Herbicidal effect by foliage application, H: barnyard grass (barnyard grass [15]; [26]): 4 (Herbicidal rate of 70% or more and less than 90%)
Herbicidal effect by foliage application, I: wild oat (wild oat [16]; [26]): 0 (Herbicidal rate of 5% or less (almost no effect))
Herbicidal effect by foliage application, J: blackgrass (blackgrass; [26]): 0 (Herbicidal rate of 5% or less (almost no effect))
Herbicidal effect by foliage application, K: Italian ryegrass (Italian ryegrass [17]; [26]): 0 (Herbicidal rate of 5% or less (almost no effect))
Herbicidal effect by foliage application, L: windgrass (windgrass [18]; [26]): 4 (Herbicidal rate of 70% or more and less than 90%)
Herbicidal effect by foliage application, M: velvetleaf (velvetleaf [19]; [26]): 3 (Herbicidal rate of 40% or more and less than 70%)
Herbicidal effect by foliage application, N: redroot pigweed (redroot pigweed [20]; [26]): 1 (Herbicidal rate of 5% or more and less than 20%)
Herbicidal effect by foliage application, O: lambsquarters (lambsquarters [21]; [26]): 1 (Herbicidal rate of 5% or more and less than 20%)
Herbicidal effect by foliage application, P: chickweed (chickweed [22]; [26]): 5 (Herbicidal rate of 90% or more (almost completely withered))
Herbicidal effect by foliage application, R: persian speedwell (persian speedwell [23]; [26]): 5 (Herbicidal rate of 90% or more (almost completely withered))
